Our source for the Ki values is PMC6830296 (Journal of Enzyme Inhibition and Medicinal Chemistry, 2019).

Where two headings read alike, the source gives them in different places.

For one test, the target named is T1, BpsCAβ (Burkholderia pseudomallei, UniProt Q63Y17).
T1 construct: gene BPSL0372
The class given is biochemical. Conditions: read-out: KI (μM)^a / BpsCAβ.

The next test has as its target T2, Can2 (Cryptococcus neoformans, UniProt Q3I4V7).
T2 construct: recombinant, obtained in-house
T2 sequence (Q3I4V7 1-239): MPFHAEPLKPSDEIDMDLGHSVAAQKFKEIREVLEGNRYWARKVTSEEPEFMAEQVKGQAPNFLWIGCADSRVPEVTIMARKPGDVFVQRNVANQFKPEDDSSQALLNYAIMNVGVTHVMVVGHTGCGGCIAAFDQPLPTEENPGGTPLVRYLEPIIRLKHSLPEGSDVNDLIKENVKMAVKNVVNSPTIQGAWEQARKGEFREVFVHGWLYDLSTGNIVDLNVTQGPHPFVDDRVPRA
In kind it is biochemical.

A further test concerns the target T3, LdcCA (Leishmania infantum, UniProt A4HSV2).
T3 construct: gene LINJ_06_0630
T3 sequence (A4HSV2 1-306): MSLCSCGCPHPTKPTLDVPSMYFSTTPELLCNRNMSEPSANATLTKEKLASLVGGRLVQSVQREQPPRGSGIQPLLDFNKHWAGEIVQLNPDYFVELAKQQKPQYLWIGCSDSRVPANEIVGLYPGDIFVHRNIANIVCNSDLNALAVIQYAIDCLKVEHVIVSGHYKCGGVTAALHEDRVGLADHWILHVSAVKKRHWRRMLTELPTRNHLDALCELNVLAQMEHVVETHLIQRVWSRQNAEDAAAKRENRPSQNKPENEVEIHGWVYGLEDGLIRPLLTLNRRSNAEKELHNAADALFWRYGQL
Conditions: read-out: KI (μM)^a / LdcCA; CO2 hydration, TRIS pH 8.3, 20 mM Na2SO4, 1 h preincubation at room temperature.

The target of test [1] is T4, CgNce (Nakaseomyces glabratus, UniProt Q6FTL6).
T4 construct: gene NCE103
T4 sequence (Q6FTL6 entry or part of it): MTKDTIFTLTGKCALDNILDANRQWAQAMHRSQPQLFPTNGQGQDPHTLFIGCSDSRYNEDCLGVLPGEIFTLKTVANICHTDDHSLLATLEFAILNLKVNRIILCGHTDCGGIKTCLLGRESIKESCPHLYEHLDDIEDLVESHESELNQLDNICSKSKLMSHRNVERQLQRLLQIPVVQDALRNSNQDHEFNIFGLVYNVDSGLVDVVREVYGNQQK
The test can be described thus: biochemical.

Test [2] concerns the target T5, VChβ (Vibrio cholerae, UniProt Q9KUD6).
T5 construct: gene VC_0586
The test can be described thus: biochemical.

For another test, the target named is T6, FtuβCA (Francisella tularensis, UniProt Q5NH77).
T6 construct: gene cynT
T6 sequence (Q5NH77 1-228): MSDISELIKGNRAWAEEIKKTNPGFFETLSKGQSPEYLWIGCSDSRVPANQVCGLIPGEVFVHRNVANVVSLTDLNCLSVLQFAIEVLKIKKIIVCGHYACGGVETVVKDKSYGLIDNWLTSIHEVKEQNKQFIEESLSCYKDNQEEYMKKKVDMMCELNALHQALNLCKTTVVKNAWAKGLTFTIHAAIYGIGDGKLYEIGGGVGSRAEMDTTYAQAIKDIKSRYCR
The class given is biochemical. Conditions: read-out: KI (μM)^a / FtuβCA.

The target of the next test is T7, MgCA (Malassezia globosa, UniProt A8Q1N3).
T7 construct: gene MGL_1814
T7 sequence (A8Q1N3 1-241): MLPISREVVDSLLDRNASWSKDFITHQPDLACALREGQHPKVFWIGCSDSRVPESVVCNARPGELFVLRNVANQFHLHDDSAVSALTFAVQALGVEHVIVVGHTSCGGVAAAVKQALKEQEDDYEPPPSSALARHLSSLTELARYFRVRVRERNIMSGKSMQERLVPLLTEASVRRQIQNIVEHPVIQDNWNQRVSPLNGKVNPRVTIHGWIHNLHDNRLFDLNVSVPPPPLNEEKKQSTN
The test can be described thus: biochemical.

The target of test [3] is T4, CgNce. Conditions: read-out: KI (μM)^a / CgNce; CO2 hydration, TRIS pH 8.3, 20 mM Na2SO4, 1 h preincubation at room temperature.
In test [4] the target is T5, VChβ. Conditions: read-out: KI (μM)^a / VChβ; CO2 hydration, TRIS pH 8.3, 20 mM Na2SO4, 1 h preincubation at room temperature.

T5 sequence (Q9KUD6 1-222): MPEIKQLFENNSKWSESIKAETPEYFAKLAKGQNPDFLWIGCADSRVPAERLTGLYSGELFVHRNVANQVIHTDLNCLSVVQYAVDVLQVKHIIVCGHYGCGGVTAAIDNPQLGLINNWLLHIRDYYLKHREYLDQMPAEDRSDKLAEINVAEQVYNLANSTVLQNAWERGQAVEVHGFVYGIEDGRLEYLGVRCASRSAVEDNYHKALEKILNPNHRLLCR
T1 sequence (Q63Y17 1-256): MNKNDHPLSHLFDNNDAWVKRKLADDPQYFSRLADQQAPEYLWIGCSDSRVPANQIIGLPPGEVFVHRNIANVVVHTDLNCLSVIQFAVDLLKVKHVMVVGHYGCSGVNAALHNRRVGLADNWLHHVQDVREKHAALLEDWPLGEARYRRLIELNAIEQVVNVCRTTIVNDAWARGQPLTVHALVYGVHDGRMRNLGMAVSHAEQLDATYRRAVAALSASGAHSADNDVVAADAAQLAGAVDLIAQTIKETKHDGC

As for `CCOP(N)(=O)c1ccccc1` (centres unmarked) [compound 4, ethyl derivative 4], the Ki on BpsCAβ is 4.6 µM; at Can2 (read-out: KI (μM)^a / Can2), 0.05 µM; at LdcCA, 3.5 µM; on CgNce [1], 0.8 µM; on VChβ [2], 9.5 µM.
In the case of `C#CCOP(N)(=O)c1ccccc1` (centres unmarked) [compound 10, propargyl phosphonamidate 10], the Ki came out at 18.9 µM on BpsCAβ; 6.9 µM on FtuβCA; 5.3 µM on Can2 (read-out: KI (μM)^a / Can2); 19.3 µM at LdcCA; 20.2 µM on CgNce [1]; 97.4 µM on MgCA. The same compound registered a Ki at VChβ [2] of 20.9 µM.
For `COP(N)(=O)c1ccccc1` (centres unmarked) [compound 3, methyl phosphonamidate 3], the Ki at BpsCAβ was 2.1 µM; at FtuβCA it was 8.5 µM; at Can2 (read-out: KI (μM)^a / Can2), 0.02 µM; on LdcCA, 0.8 µM; at CgNce [1], 0.2 µM; on VChβ [2] it was 0.5 µM.
With `NP(N)(=O)c1ccccc1` [compound 2, phenylphosphonic diamide 2], the Ki stood at 2.5 µM at BpsCAβ; 10.3 µM at FtuβCA; 0.03 µM on Can2 (CO2 hydration, TRIS pH 8.3, 20 mM Na2SO4, 1 h preincubation at room temperature, read-out: KI (μM)^a / Can2); 2.1 µM at LdcCA; 0.05 µM at CgNce [3]; 0.9 µM at VChβ [4].
Take `CCCCOP(N)(=O)c1ccccc1` (centres unmarked) [compound 7, alkyl phosphonamidate 7]: the Ki at BpsCAβ amounted to 22.5 µM; at FtuβCA it was 42 µM; at Can2 (read-out: KI (μM)^a / Can2), 2.2 µM; at CgNce [1], 5.3 µM; on VChβ [2] it was 26.8 µM.
On to `CC(C)OP(N)(=O)c1ccccc1` (centres unmarked) [compound 6, isopropyl (6)], for which the Ki at BpsCAβ turned out to be 5.8 µM; at FtuβCA, 18.4 µM; at Can2 (read-out: KI (μM)^a / Can2) it was 0.1 µM; at LdcCA it was 5.1 µM; at CgNce [1], 0.7 µM; at VChβ [2], 7.3 µM.
Take `NP(=O)(OCCCl)c1ccccc1` (centres unmarked) [compound 9, alkyl phosphonamidate 9]: the Ki at BpsCAβ turned out to be 32.7 µM; at FtuβCA, 15.1 µM; at Can2, 0.6 µM; on CgNce [1] it was 1.8 µM; on VChβ [2], 34.7 µM.
With `CCCOP(N)(=O)c1ccccc1` (centres unmarked) [compound 5, propyl (5)], the Ki was 12.6 µM on BpsCAβ; 35.6 µM on FtuβCA; 0.9 µM on Can2 (read-out: KI (μM)^a / Can2); 6.8 µM on LdcCA; 1.3 µM at CgNce [1]; 79 µM at MgCA. For the same compound, the Ki at VChβ [2] worked out at 15.4 µM.
